From PubChem BioAssay (NCI)
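A five-concentration, 48-hour dose response in 96-well plates underlies each endpoint, interpolated linearly between surrounding concentrations. TGI marks complete inhibition of growth.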

Experiments:
Assay in all cases: NCI tumour cell line growth inhibition, 48 h
[1] = system: SF-268 CNS
[2] = system: K-562 leukemia
[3] = system: SF-539 CNS
[4] = system: MCF7 breast
[5] = system: DU-145 prostate
[6] = system: 786-0 renal
[7] = system: IGROV1 ovarian
[8] = system: A549 NSCLC
[9] = system: NCI/ADR-RES ovarian
[10] = system: NCI-H522 lung
[11] = system: A498 renal
[12] = system: HOP-92 NSCLC
[13] = system: SK-MEL-28 melanoma
[14] = system: UO-31 renal
[15] = system: SR leukemia
[16] = system: OVCAR-5 ovarian
[17] = system: OVCAR-4 ovarian
[18] = system: SW-620 colon
[19] = system: CAKI-1 renal
[20] = system: NCI-H226 lung
[21] = system: HCT-15 colon
[22] = system: UACC-257 melanoma
[23] = system: CCRF-CEM leukemia
[24] = system: MOLT-4 leukemia
[25] = system: EKVX NSCLC
[26] = system: PC-3 prostate
[27] = system: LOX IMVI melanoma
[28] = system: HT29 colon
[29] = system: HCC-2998 colon
[30] = system: SK-MEL-5 melanoma
[31] = system: SK-OV-3 ovarian
[32] = system: OVCAR-8 ovarian
[33] = system: UACC-62 melanoma
[34] = system: MDA-N
[35] = system: ACHN renal
[36] = system: U251 CNS
[37] = system: SK-MEL-2 melanoma
[38] = system: NCI-H23 lung
[39] = system: KM12 colon
[40] = system: HCT-116 colon
[41] = system: M14 melanoma
[42] = system: MDA-MB-231 breast
[43] = system: RPMI-8226 leukemia
[44] = system: SN12C renal
[45] = system: T-47D breast
[46] = system: COLO 205 colon
[47] = system: TK-10 renal
[48] = system: RXF 393 renal
[49] = system: SF-295 CNS
[50] = system: BT-549 breast
[51] = system: MALME-3M melanoma
[52] = system: MDA-MB-435
[53] = system: OVCAR-3 ovarian
[54] = system: HOP-62 NSCLC
[55] = system: SNB-19 CNS
[56] = system: SNB-75 CNS
[57] = system: NCI-H460 lung
[58] = system: HS 578T breast

CC1(C)C[C@H]2[C@H](O)C(CO)=C3C(=O)[C@@H](O)[C@]3(C)[C@H]2C1
TGI [1]: > 100 µM | TGI [2]: > 100 µM | TGI [3]: > 100 µM | TGI [4]: > 100 µM | TGI [5]: > 100 µM | TGI [6]: > 100 µM | TGI [7]: > 100 µM | TGI [8]: > 100 µM | TGI [9]: > 100 µM | TGI [10]: > 100 µM | TGI [11]: > 100 µM | TGI [12]: > 100 µM | TGI [13]: > 100 µM | TGI [14]: > 100 µM | TGI [15]: > 100 µM | TGI [16]: > 100 µM | TGI [17]: > 100 µM | TGI [18]: > 100 µM | TGI [19]: > 100 µM | TGI [20]: > 100 µM | TGI [21]: > 100 µM | TGI [22]: > 100 µM | TGI [23]: 84 µM | TGI [24]: 53.3 µM | TGI [25]: > 100 µM | TGI [26]: > 100 µM | TGI [27]: > 100 µM | TGI [28]: > 100 µM | TGI [29]: > 100 µM | TGI [30]: > 100 µM | TGI [31]: > 100 µM | TGI [32]: > 100 µM | TGI [33]: > 100 µM | TGI [34]: > 100 µM | TGI [35]: > 100 µM | TGI [36]: > 100 µM | TGI [37]: > 100 µM | TGI [38]: > 100 µM | TGI [39]: > 100 µM | TGI [40]: > 100 µM | TGI [41]: > 100 µM | TGI [42]: > 100 µM | TGI [43]: > 100 µM | TGI [44]: > 100 µM | TGI [45]: > 100 µM | TGI [46]: > 100 µM | TGI [47]: > 100 µM | TGI [48]: > 100 µM | TGI [49]: > 100 µM | TGI [50]: > 100 µM | TGI [51]: > 100 µM | TGI [52]: > 100 µM | TGI [53]: > 100 µM | TGI [54]: > 100 µM | TGI [55]: > 100 µM

Cc1ccc(NC(=S)C#N)cc1Cl
TGI [1]: > 100 µM | TGI [2]: > 100 µM | TGI [3]: 70.5 µM | TGI [4]: > 100 µM | TGI [5]: > 100 µM | TGI [6]: > 100 µM | TGI [7]: 48.4 µM | TGI [8]: > 100 µM | TGI [9]: > 100 µM | TGI [11]: 73.7 µM | TGI [12]: 62.8 µM | TGI [13]: > 100 µM | TGI [15]: > 100 µM | TGI [16]: 85.7 µM | TGI [18]: > 100 µM | TGI [19]: > 100 µM | TGI [20]: > 100 µM | TGI [21]: > 100 µM | TGI [22]: > 100 µM | TGI [23]: 80.3 µM | TGI [24]: > 100 µM | TGI [25]: > 100 µM | TGI [26]: > 100 µM | TGI [27]: > 100 µM | TGI [28]: > 100 µM | TGI [56]: 75 µM | TGI [29]: 52.8 µM | TGI [30]: > 100 µM | TGI [31]: > 100 µM | TGI [32]: > 100 µM | TGI [33]: > 100 µM | TGI [34]: > 100 µM | TGI [35]: > 100 µM | TGI [36]: > 100 µM | TGI [37]: > 100 µM | TGI [38]: > 100 µM | TGI [39]: > 100 µM | TGI [40]: > 100 µM | TGI [41]: > 100 µM | TGI [42]: > 100 µM | TGI [43]: 56.2 µM | TGI [44]: > 100 µM | TGI [45]: > 100 µM | TGI [46]: 65.2 µM | TGI [47]: > 100 µM | TGI [48]: 97.8 µM | TGI [49]: > 100 µM | TGI [50]: > 100 µM | TGI [51]: > 100 µM | TGI [52]: > 100 µM | TGI [53]: 53.8 µM | TGI [54]: > 100 µM

Cc1ccc2c(=O)cc(-c3cccc(Cl)c3)[nH]c2n1
TGI [1]: > 100 µM | TGI [3]: 0.0443 µM | TGI [4]: > 36 µM | TGI [5]: > 100 µM | TGI [6]: > 100 µM | TGI [7]: > 100 µM | TGI [8]: > 100 µM | TGI [10]: 1.61 µM | TGI [11]: > 100 µM | TGI [12]: > 100 µM | TGI [13]: > 100 µM | TGI [14]: > 100 µM | TGI [15]: > 100 µM | TGI [16]: > 100 µM | TGI [57]: > 100 µM | TGI [17]: > 100 µM | TGI [18]: > 100 µM | TGI [19]: > 100 µM | TGI [20]: 25.9 µM | TGI [21]: > 35.8 µM | TGI [22]: > 100 µM | TGI [23]: > 100 µM | TGI [25]: > 100 µM | TGI [26]: > 100 µM | TGI [27]: > 100 µM | TGI [29]: 41.5 µM | TGI [30]: 4.7 µM | TGI [31]: > 100 µM | TGI [32]: > 100 µM | TGI [33]: > 100 µM | TGI [34]: > 100 µM | TGI [35]: > 100 µM | TGI [37]: > 100 µM | TGI [38]: > 31.6 µM | TGI [39]: > 37.5 µM | TGI [41]: > 100 µM | TGI [42]: 3.63 µM | TGI [44]: > 100 µM | TGI [46]: > 35.8 µM | TGI [47]: > 100 µM | TGI [49]: 1.36 µM | TGI [50]: > 100 µM | TGI [51]: > 100 µM | TGI [52]: 0.0463 µM | TGI [58]: > 100 µM | TGI [53]: 0.0274 µM | TGI [55]: > 100 µM
